Laboratory results taken from patent US20060172945A1, “Human neutrophil alpha-defensin 4 inhibition of HIV-1” (priority 2005, published 2006).
Entries after “also recorded” stand apart in the source; their conditions may differ. No end group written: not given here.

Tested on: HIV-1 isolates IIIB (X4), BaL (R5), B703 (X4), NSI03 (R5) in PBMC
Experiment: Inhibition of HIV-1 replication in PBMC, HIV-1 p24 antigen-capture ELISA
Type: cell-based
Settings: HIV-1 infected human PBMC in vitro, p24 at day 4; HNP4 compared with HNPs 1-3
Method: Inhibition of HIV-1 in vitro by α-defensins 1-3 was first reported by Nakashima et al, 1993 [11], which has been confirmed by several recent reports.
Cells infected with the HIV-1 virus were added to duplicate series of wells containing varying concentrations of test defensin in 200 ul complete culture medium, and fed after 48 hours with fresh defensin of appropriate quantities. Medium alone was used as the control. The level of HIV-1 replication was measured at day 4 after infection by HIV-1 p24 antigen-capture ELISA. Percent infection was determined as a function of HIV p24 released into the medium in sample wells versus in control wells.

Substance: HNP4: Human neutrophil α-defensin 4, 33 amino acid residues; amino acid residues 64-96 of defensin 4 (VCSCRLVFCRRTELRVGNCLIGGVSFTYCCTRV; ends and bridges not checked; cysteine pairing not given here; UniProt P12838 64-96, looked up, fragment)
- Inhibition of HIV-1 (in words): significantly more effective inhibitor than HNPs 1-3; also recorded: significantly and unexpectedly stronger
